# Results published in PubChem BioAssay AID463204 (Broad Institute, 2010).
# Activity calls are given as the source filed them.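 The calls were made as follows: active = AC50 no more than ten times the top concentration tested, that is within one log above it; inconclusive = flat curve fit with activity between 30% and 70%, or invalid poor fit; inactive = AC50 beyond ten times the top tested dose.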
# Tested on: S. cerevisiae Mot1-301 ts growth rescue, BacTiter-Glo ATP luminescence
# Assay: growth rescue of Mot1-301 ts yeast, confirmation, SUMOylation pathway inhibitor project, whole organism, S. cerevisiae, Mot1-301 ts mutant, luminescence, dose retest (AID 463204);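 also: growth at restrictive 38.5 degrees C of Mot1-301 OY566 strain; actives raise luminescence by restoring growth of the ts mutant at high temperature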
row,Compound,AC50
1,O=C1CCC(=O)N1CCOP1(=O)COc2ccccc2OC1,> 42 µM (inactive)
2,COc1cccc(-n2c(Cc3cc(=O)[nH]c(=O)[nH]3)nnc2SCc2cccnc2)c1,> 42 µM (inactive)
3,CCCCn1c(N)c(N(CC(C)C)C(=O)c2cc(-c3ccc(F)cc3)nc3ccccc23)c(=O)[nH]c1=O,> 42 µM (inactive)
4,Cc1cc(C(=O)OCC(=O)Nc2cccc(S(N)(=O)=O)c2)c2ccccc2n1,> 42 µM (inactive)
5,CCn1c(-c2ccccc2)c(C(=O)CC#N)c2ccccc21,> 42 µM (inactive)
6,COc1ccc(/C=N\Nc2ccc([N+](=O)[O-])cc2)c(C(=O)O)c1OC,> 42 µM (inactive)
7,CC(Oc1ccc([N+](=O)[O-])cc1)C(=O)NCCCN1CCOCC1 (configuration not stated),> 42 µM (inactive)
8,O=C(CCCC(=O)N(CC(=O)NC1CCCC1)c1cccc(F)c1)Nc1ccccn1,> 42 µM (inactive)
9,CCOc1ccc(-c2nnc(SCC(=O)N3CCCC3)o2)cc1,> 42 µM (inactive)
10,CCOC(=O)c1oc2c(c1C)C(=O)CCC2,> 42 µM (inactive)
11,COc1cc(C(=O)COC(=O)c2cc([N+](=O)[O-])ccc2N2CCOCC2)ccc1OC(F)F,29.4 µM
12,N#C/C(=C\c1cc([N+](=O)[O-])c(N2CCOCC2)cc1N1CCOCC1)c1nc2ccccc2[nH]1,> 42 µM (inactive)
13,CC(C)CCCN1CCN=C1Nc1ccccc1,> 42 µM (inactive)
14,CCOc1ccccc1C(=O)NCc1ccc2c(c1)OCO2,> 42 µM (inactive)
15,O=C(OCC(=O)N1CCN(Cc2ccccc2)CC1)c1ccc(Cl)cc1,> 42 µM (inactive)
16,CSc1cccc(N2C(=O)C3CCCN3C2=S)c1 (configuration not stated),> 42 µM (inactive)
17,COc1ccc(-c2cc(C#N)nc(N3CCN(c4ccccc4)CC3)n2)cc1,> 42 µM (inactive)
18,CCc1nnc(NC(=O)CSc2ccc(-c3ccc(-n4cccn4)cc3)nn2)s1,> 42 µM (inactive)
19,COc1cc(CN2CCN(c3ncccn3)CC2)cc(OC)c1,> 42 µM (inactive)
20,O=C(COc1ccccc1Cl)c1ccc[nH]1,> 42 µM (inactive)
21,Cn1cnnc1-c1cccc(NS(=O)(=O)c2ccc(N3CCCC3=O)cc2)c1,> 42 µM (inactive)
22,c1ccc2nc3c(nc2c1)OCC1CCCCN31 (configuration not stated),> 42 µM (inactive)
23,CC(C)(C)C(=O)C(Cl)C(=O)Nc1ccccc1 (configuration not stated),3.35 µM
24,CCc1nnc2n1N=C(c1ccc(Cl)cc1)CS2,> 42 µM (inactive)
25,Cc1nc2c3ccccc3nc(NNC(=O)CCC(=O)N3CCCC(C)C3)n2n1 (configuration not stated),> 42 µM (inactive)
26,O=Cc1ccc(Oc2cccc(C(F)(F)F)c2)nc1,> 42 µM (inactive)

row,Compound,AC50
1,CS(=O)(=O)N(CC(=O)Nc1ccccc1C(=O)N1CCCC1)c1ccc2c(c1)OCO2,> 42 µM (inactive)
2,COc1ccc(CN(CC(=O)NCC2CCCO2)C(=O)CCC(=O)Nc2cc(C)on2)cc1 (configuration not stated),> 42 µM (inactive)
3,O=C(NCc1cccc(F)c1F)C1CCC(=O)N(C2CC2)C1 (configuration not stated),> 42 µM (inactive)
4,Cc1cc(NC(=O)c2ccccc2F)n(C(C)(C)C)n1,> 42 µM (inactive)
5,Cn1c(CN2CCOCC2)nnc1SCC(N)=O,> 42 µM (inactive)
6,COc1ccc2[nH]c(C(=O)N/N=C/c3ccccc3OC)cc2c1,> 42 µM (inactive)
7,O=C(O)CNS(=O)(=O)Cc1ccccc1,> 42 µM (inactive)
8,CCOc1ncccc1-c1nc(-c2cccs2)no1,> 42 µM (inactive)
9,Cc1ccc(C)n1-n1cnc2sc3c(c2c1=O)CCCCC3,> 42 µM (inactive)
10,C/C=C/C(=O)OCC(=O)Nc1nc2ccc(C)cc2s1,> 42 µM (inactive)
11,CC(C)N(C(=S)Nc1cccc(S(=O)(=O)N(C)C)c1)c1ccccc1,> 42 µM (inactive)
12,CCOC(=O)c1c(N)sc(C(=O)N2CCCC(C(N)=O)C2)c1C (configuration not stated),> 42 µM (inactive)
13,Cc1ccc(/C=N/NC(=O)NC23CC4CC(CC(C4)C2)C3)o1,> 42 µM (inactive)
14,O=C(Nc1ccc2nc(-c3ccc4nc[nH]c4c3)[nH]c2c1)c1cccs1,> 42 µM (inactive)
15,O=C1NC2(CCCCC2)NN1c1ccccc1,> 42 µM (inactive)
16,CCc1noc(C)c1C(=O)Nc1nc(-c2ccc(F)cc2)c(C)s1,> 42 µM (inactive)
17,CCNCc1nc2cc(Cl)ccc2c(=O)[nH]1,> 42 µM (inactive)
18,CC1(C)CCC(=O)N2CC[C@H]3C[C@H](OC(=O)Nc4ccc(Br)cc4)C[C@@H]1[C@H]32,> 42 µM (inactive)
19,COc1ccc(-c2cc(C(F)(F)F)n3ncc(C(=O)O)c3n2)cc1OC,> 42 µM (inactive)
20,COC(=O)c1[nH]c2cc(C)ccc2c1NC(=O)CN1CCN(c2ccccc2OC)CC1,> 21 µM (inactive)
21,CCCC(=O)NC(C)c1nc2ccccc2[nH]1 (configuration not stated),> 42 µM (inactive)
22,O=c1c2ccccc2nc(COc2ccccc2)n1/N=C/c1cn[nH]c1-c1ccccc1,> 42 µM (inactive)
23,Cc1nc(NCCN2CCOCC2)c2nnn(Cc3c(F)cccc3Cl)c2n1,> 42 µM (inactive)
24,O=C(CCn1cnnn1)Nc1ccc(Cl)cc1Cl,> 42 µM (inactive)
25,CC1c2cc3c(cc2CCN1CC(=O)Nc1ccccc1)OCCCO3 (configuration not stated),> 42 µM (inactive)
26,CC(C)=CC(=O)N1CCCC(N2CCN(c3ccc(F)cc3)CC2)C1 (configuration not stated),> 42 µM (inactive)

row,Compound,AC50
1,CC(=O)N1CCc2cc(S(=O)(=O)CCC(=O)N3CCN(C(=O)c4ccco4)CC3)ccc21,> 42 µM (inactive)
2,COc1ccc(S(=O)(=O)N2CCc3cc4c(cc3C2C)OCCCO4)cc1 (configuration not stated),> 42 µM (inactive)
3,CCOc1ccc(N(CC(=O)NC2CCC(C)CC2)S(=O)(=O)c2c(C)noc2C)cc1 (configuration not stated),> 42 µM (inactive)
4,CC(C)c1cc(C(=O)N/N=C/C(Br)=C/c2ccccc2)n[nH]1,6.05 µM
5,COc1ccc(N(CC(=O)NCc2ccc(C)cc2)S(=O)(=O)c2c(C)nn(C)c2C)cc1,> 42 µM (inactive)
6,Nc1cc(C(=O)OCC(=O)N2CCOCC2)ccc1Cl,> 42 µM (inactive)
7,Cc1cccc(NC(=S)NC(=O)/C=C/c2ccco2)c1,> 42 µM (inactive)
8,CC1(C)c2[nH]c3ccccc3c2C[C@H]2C(=O)N(Cc3cccc(F)c3)C(=O)N21,> 42 µM (inactive)
9,N[C@@H](Cc1ccc(O)c(I)c1)C(=O)O,> 42 µM (inactive)
10,O=C(c1ccncc1)N(Cc1ccccc1)Cc1nc2ccccc2c(=O)[nH]1,> 42 µM (inactive)
11,COc1ccc(-c2nnc(-c3cc4c(ccc5ccccc54)oc3=O)o2)cc1,> 42 µM (inactive)
12,CSc1ncccc1C(=O)NC1CCCc2c1cnn2-c1ccc(C)c(C)c1 (configuration not stated),> 42 µM (inactive)
13,CN(C)C(/C=C/Nc1cccc(Br)c1)=C(C#N)C#N,> 42 µM (inactive)
14,O=C(OCCCCOC(=O)c1ccccc1)c1ccccc1,> 42 µM (inactive)
15,O=C(c1cc(N2C(=O)C3C4CCC(C4)C3C2=O)ccc1Cl)N1CCN(c2ccccc2)CC1 (configuration not stated),> 42 µM (inactive)
16,Cc1nc2nc[nH]n2c(=O)c1NS(=O)(=O)c1ccc([N+](=O)[O-])cc1,> 42 µM (inactive)
17,COc1cccc(OC)c1OCC(O)CN1CCN(c2ccccc2)CC1 (configuration not stated),> 42 µM (inactive)
18,Cc1nn(Cc2ccc(C(=O)Nc3ccccc3C(F)(F)F)o2)c(C)c1Br,> 42 µM (inactive)
19,O=C(O)CCc1ccc(-c2cccs2)n1NC(=O)c1cccs1,> 42 µM (inactive)
20,CN(C)c1ccc(/C=N\Nc2ccccn2)cc1,> 42 µM (inactive)
21,CCOc1ccc(NC(=O)Nc2ccc3nsnc3c2)cc1,> 42 µM (inactive)
22,O=C(O)CC(NC(=O)OCc1ccccc1)c1ccc(Br)cc1 (configuration not stated),> 42 µM (inactive)
23,Cc1sc2nc(N)sc2c1C,> 42 µM (inactive)
24,Cc1cc(-c2nnc3sc(C4CCCCC4)nn23)n[nH]1,> 42 µM (inactive)
25,Cc1ccc(-n2nc3c(=O)n(CCCC(=O)NCc4cccc(F)c4)nc(C)c3c2C)cc1,> 42 µM (inactive)
26,CCOc1ccc(Br)cc1S(=O)(=O)N1CCC(C(N)=O)CC1,> 42 µM (inactive)

row,Compound,AC50
1,CC(=O)c1c(N)[nH]c(-c2ccccc2)nc1=S,> 42 µM (inactive)
2,CC/C(=N\NC(=O)c1nnn(-c2nonc2N)c1-c1cccs1)c1ccccc1,> 42 µM (inactive)
3,C=CCn1c(CCC)nc2ccccc21,> 42 µM (inactive)
4,Cc1cc(C(F)(F)F)nc(SCC(=O)Nc2cc(C)on2)n1,> 42 µM (inactive)
5,CC1(C)NC(=O)N(CC(=O)O)C1=O,> 42 µM (inactive)
6,C=CCN1C(=O)/C(=C\c2ccc(C)cc2)N=C1SCC(=O)NCCC,> 42 µM (inactive)
7,O=C(COC(=O)CSc1ccc([N+](=O)[O-])cc1)NC1CCCCCCC1,> 42 µM (inactive)
8,O=C(CSc1ncccn1)c1ccccc1Br,> 42 µM (inactive)
9,C/C(=N/OCO/N=C(\C)c1ccccc1)c1ccccc1,> 42 µM (inactive)
10,CCCCOCCCNS(=O)(=O)Cc1ccccc1,> 42 µM (inactive)
11,CCc1cc2c(NCCO)ncnc2s1,> 42 µM (inactive)
12,COc1ccc(CN2CCN(C(=O)c3cc(-c4cccnc4)nc4ccc(Cl)cc34)CC2)c(OC)c1OC,> 42 µM (inactive)
13,COc1ccc(C(C)=O)cc1CN(c1ccccc1OC)S(=O)(=O)c1cccs1,> 42 µM (inactive)
14,CC1CN(Cc2ccccc2)c2nc3c(c(=O)[nH]c(=O)n3C)n2C1 (configuration not stated),> 42 µM (inactive)
15,O=C1CCN(Cc2ccccc2)CCN1CCOc1ccccc1,> 42 µM (inactive)
16,CSc1ccc(Cl)c(C(=O)Nc2ccc(N3CCOCC3)cc2)c1,> 42 µM (inactive)
17,S=C(Nc1ccc(Cl)cc1)N1CCN(Cc2ccccc2)CC1,> 42 µM (inactive)
18,Cc1ccccc1NC(=O)c1ccccc1NC(=O)c1ccco1,> 42 µM (inactive)
19,CC(=O)c1ccc(Nc2cc(C)nc3ccccc23)cc1,> 42 µM (inactive)
20,CCOC(=O)C1(CCOc2ccccc2)CCN(Cc2cccc(OC)c2O)CC1,> 42 µM (inactive)
21,O=C(CCCc1nc(-c2ccc(Cl)cc2)no1)NC1CCCCC1,> 42 µM (inactive)
22,Cc1ccc2c(c1)N(CC(=O)NCC1CCCO1)C(=O)C(C)O2 (configuration not stated),> 42 µM (inactive)
23,COc1ccc(N2CCN(C(=O)C3CCCN(S(=O)(=O)c4ccc5c(c4)oc(=O)n5C)C3)CC2)cc1 (configuration not stated),> 21 µM (inactive)
24,O=C(c1ccccc1F)N1CCCc2ccccc21,> 42 µM (inactive)
